Data as given in patent publication US20250134904A1, “SOLID PHARMACEUTICAL FORMULATIONS OF VARENICLINE” (MEDICHEM, S.A., priority 2021, published 2025).
Structures can show the parent of a compound that is named as a salt.

What was measured:
[1] = based on lifetime exposure; cited from earlier work
[2] = HPLC-MS quantification of N-nitroso-varenicline impurity (II) in tablets, after manufacture and after storage/stress; format: physicochemical; conditions: starting material before tablet manufacture
Method: The N-nitroso-varenicline-impurity (II) level in the solid pharmaceutical formulation of the present invention may be detected by high performance liquid chromatography (HPLC) method disclosed in the present invention.
HPLC Method Used for Analyzing N-Nitroso-Varenicline Impurity (II)
The chromatographic separation was carried out using an Acquity UPLC HSS PFP, 2.1×100 mm, 1.8 μm at 35±2° C.
Mobile phase A: 0.05% (v/v) formic acid solution in water.
Mobile phase A is prepared as follows: Dilute with water, 0.5 mL of formic acid in a 1000 mL volumetric flask.
Mobile phase B: Acetonitrile LC-MS grade.
The chromatograph was programmed as follows: initial 2 min isocratic 90% mobile phase A; 2-11 min linear gradient to 50% mobile phase A; 11-16 min isocratic 50% mobile phase A; 16-18 min linear gradient to 90% mobile phase A; 18-23 min isocratic 90% mobile phase A.
The chromatograph was equipped with equipped with a mass detector. The acquisition was made in Single Ion Monitoring. The ion with m/z 241.0 was monitored at 0.8 points/s. The ionization mode was positive electrospray (ESI+), the source temperature was set at 130° C., desolvation gas flow was at 500 L/h and the capillary voltage was set at 3 kV. The cone voltage was set at 20 V for the ion with m/z 241.0. […]
The quantification (μg/g or ppm) of N-nitroso-varenicline impurity (II) in test specimen was performed as follows: […]

| N-nitroso-varenicline impurity (II) content of the varenicline tartrate used as starting material [2] | Compound | intake considered reasonably safe for humans (FDA) [1] |
| --- | --- | --- |
| – | O=NN1CC2CC(C1)c1cc3nccnc3cc12 [N-nitroso-varenicline impurity (II)] | up to 37 ng/day |
| less than 0.4 ppm | c1cnc2cc3c(cc2n1)C1CNCC3C1 [varenicline tartrate, 7,8,9,10-tetrahydro-6,10-methano-6H-pyrazino[2,3-h][3]benzazepine] | – |
